Assay results as given in patent USRE36744E, “Nasal administration of benzodiazepine hypnotics” (Ribogene, Inc., priority 1994, dated 2000).
Where “and” joins values, the source holds several entries; their conditions need not be identical. Equal entries are not always repeated.

Key:
[1] = Comparative oral versus nasal pharmacokinetics of flurazepam in dogs (plasma, GC assay); format: in vivo, beagle dogs
Protocol: The efficacy of oral versus nasal administration was examined using the methodology of Example 2.
Oral Administration Studies: Fifteen mg of flurazepam HCl solution was given to each dog with 50 ml of water. […] The plasma samples were stored frozen until GC assay for flurazepam.
Nasal Administration Studies: One hundred and twenty milligrams of flurazepam HCl powder was dissolved in 4 ml of distilled water. […] Air bubbles generated during mixing were eliminated by centrifugation. The pH of the solution was 1.82.
Flurazepam solution was sprayed into both nostrils of the dogs. The dose given to the dogs was 14.5, 12.4, 12.1 and 12.5 mg as flurazepam HCl. Blood sampling times were same as in the oral study. The plasma samples were frozen until GC assay for flurazepam.
Five ml of hexane was then added and the mixture was vortexed together for one min. and centrifuged for 4 minutes. Four ml of the upper organic layer was then pipetted. Fifty μl of hexane/isoamyl alcohol was used for reconstitution.
Flurazepam in plasma was assayed by a Hewlett Packard model 5830A GC-EC. […] The temperatures for column, injector port and detector were 250°, 310° and 310° C., respectively. The flow rate for argon/methane (95:5) gas was 33 ml/min.

Wistar rats = assay: Oral versus nasal hypnotic efficacy in rats (duration of sleeping time, loss and reappearance of the righting reflex); format: in vivo
Protocol: A variety of hypnotics including chloral hydrate, sodium pentobarbital and flurazepam were administered to Wistar rats to compare the efficacy of oral and nasal administration.
Oral Administration Studies: The subjects were fasted for approximately 18 hours; water was available ab libitum. Aqueous solutions of chloral hydrate obtained from Sigma Chemical Co., Ltd. and sodium pentobarbital were separately administered to groups of the subject rats using a constant dose volume of […]. Different dosage levels were obtained by varying the aqueous concentrations of therapeutic drug to identify an effective amount of hypnotic.
The animals were then placed in a constant temperature environment of 32° C. The duration of sleeping time (measured by the loss and reappearance of the righting reflex) was recorded for each animal. The results within each group were then averaged.
Nasal Administration Studies: The methodology of the oral studies was repeated with substitution of nasal administration of aqueous solutions through a fine catheter inserted into the nostril. The therapeutic drug was dosed at a constant volume of 50 μl which would deliver an amount of the hypnotic which would be orally effective.

[2] = Comparative oral versus nasal pharmacokinetics of midazolam in dogs (plasma, GC assay); format: in vivo, beagle dogs; details: for half-life / Tmax / Cmax: dog, plasma
Protocol: Air bubbles generated during mixing were removed by centrifugation.
The dose given to each dog was 7.85, 7.89, 7.22, 5.61 mg free base.
GC Assay--for extraction, 0.5 ml of plasma, 100 μl of internal standard (100 ng/ml flurazepam in methanol) and 0.5 ml of 2N sodium hydroxide were vortexed for 5 seconds. Five ml of hexane was then added and the mixture was vortexed for one min. and centrifuges for 4 minutes. […] Fifty μl of hexane/isoamyl alcohol (80:20) was used for reconstitution.
The temperatures for column, injector port and detector were 250°, 310° and 310° C., respectively. The flow rate for argon/methane (95:5) gas was 33 ml/min.

[3] = Comparative oral versus nasal pharmacokinetics of triazolam in beagle dogs (plasma, GC assay); details: for Cmax / half-life / Tmax: dog, plasma
Protocol: In two comparative studies separated in time by over one week; four healthy male, 2-3 year old beagle dogs received oral and nasal doses of triazolam. They were fasted overnight before each study and food was withheld until the end of the experiment. They were restrained in a dog sling during the studies while blood (3 ml) was withdrawn from each dog through a cannula inserted into the cephalic vein.
Oral Administration Studies: Two 0.5 mg triazolam tablets were given to each dog with 50 ml of water. Blood samples were taken from the cephalic vein at 0 min before administration and 15, 30, 45, 60, 120, 180, 240, 300, 360 and 420 min after administration. The plasma samples were stored frozen until gas chromotographic assay for triazolam.
Nasal Administration Studies: Thirty milligrams of triazolam powder was dissolved in 5 ml of PEG 400 warmed at 55°-60° C. After the solution was cooled to room temperature, an equal volume of 1% methocel J5MS (Dow Chemical Company, Midland, Mich.) solution was mixed with the triazolam solution. Air bubbles generated during mixing were removed by centrifugation. The final concentration of triazolam in the solvent mixture was assayed by an HPLC method. An Altex C18, 4.6×150 mm column was used. The mobile phase contained 60% of 0.05 M KH2 PO4 (pH=6.0, T. J. Baker) and 40% acetonitrile (Fisher Scientific). Flow rate of mobile phase was 1 ml/min. The wavelength used was 221 nm.
Using a metered dose inhaler, triazolam solution was sprayed into both nostrils of the dogs. The dose administered was determined by weighting the bottle containing the triazolam solution before and after spraying. […] Blood sampling times were the same as in the oral study. The plasma samples were frozen until GC assay for triazolam.
GC Assay: To extract triazolam, 0.5 ml of plasma, 50 μl of internal standard (55 ng/ml clonazepam in methanol) and 3 ml of hexane/methylene chloride (4:3) were vortexed together for 15 seconds and centrifuged for 4 minutes. The bottom aqueous layer was frozen by dry ice/acetone and the upper organic layer was transferred to another tube containing 1 ml of distilled water. The mixture was vortexed for 15 seconds and centrifuged for 4 minutes. Two ml of the upper organic layer was then pipetted into another tube and evaporated to dryness in an vortex-evaporator. […] of toluene was used for reconstitution.
The amount of triazolam in 3 ml of extract plasma was assayed by an HP model 5830A GC-EC. The glass column used was a 6'×1/4" 2 mm on column w/o liner 6" coil (Anspec) with 3% OV-17 […] and detector were 275°, 310° and 350° C., respectively. The flow rate for argon/methane (95:5) gas 42 ml/min.

[4] = dogs, nasal vs oral, dose-normalized
[5] = nasal spray, 12.1-14.5 mg as HCl, individual dog
[6] = nasal spray, 5.61-7.89 mg free base, individual dog
[7] = oral, 5 mg free base equivalent, individual dog

Structure (SMILES): CCN(CC)CCN1C(=O)CN=C(c2ccccc2F)c2cc(Cl)ccc21 [flurazepam]
- Tmax ([1]; dog, plasma, nasal spray, 12.1-14.5 mg as HCl, individual dog, read-out: TMAX NASAL (converted)): 15 min
- Cmax ([1]; dog, plasma, nasal spray, 12.1-14.5 mg as HCl, mean of four dogs, read-out: CMAX NASAL (MEAN)): 73.3 ng/mL
- half-life ([1]; dog, plasma, nasal spray, 12.1-14.5 mg as HCl, mean of four dogs, read-out: T1/2 NASAL (MEAN)): 168 min
- Tmax ([1]; dog, plasma, nasal spray, 12.1-14.5 mg as HCl, mean of four dogs, read-out: TMAX NASAL (MEAN) (converted)): 15 min
- Cmax ([1]; dog, plasma, po, 15 mg, oral, 15 mg flurazepam HCl, mean of four dogs, head marked *, read-out: CMAX PO (MEAN)): 4.97 ng/mL
- Tmax ([1]; dog, plasma, po, 15 mg, oral, 15 mg flurazepam HCl, mean of four dogs, read-out: TMAX PO (MEAN) (converted)): 26.3 min
- Tmax after nasal administration relative to oral route ([1]; dogs, nasal vs oral): half that of oral route
- Plasma levels after nasal administration compared with oral ([1]; dogs, nasal vs oral, dose-corrected, FIG. 3): consistently higher
- Mean increase in AUC after nasal administration [1, 4]: 51 fold
- Cmax after oral administration lower than that of nasal route ([1]; dogs, oral vs nasal): 15 times
- AUC NASAL ([1]; nasal spray, 12.1-14.5 mg as HCl, dose-normalized, individual dog): 922.3 ngmin/ml-mg and 384.9 ngmin/ml-mg and 287.4 ngmin/ml-mg and 314.9 ngmin/ml-mg
- AUC NASAL (MEAN) ([1]; nasal spray, 12.1-14.5 mg as HCl, dose-normalized, mean of four dogs): 477.4 ngmin/ml-mg
- CMAX NASAL [1, 5]: 161.5 ng/mL and 41.1 ng/mL and 31.5 ng/mL and 59.0 ng/mL
- T1/2 NASAL [1, 5]: 214.7 min and 190.8 min and 163.3 min and 102.6 min
- AUC PO ([1]; oral, 15 mg flurazepam HCl, dose-normalized, estimated up to last data point, individual dog): 8.60 ngmin/ml-mg and 19.30 ngmin/ml-mg and 4.81 ngmin/ml-mg and 20.00 ngmin/ml-mg
- AUC PO (MEAN) ([1]; oral, 15 mg flurazepam HCl, dose-normalized, estimated up to last data point, mean of four dogs): 13.20 ngmin/ml-mg
- TMAX PO ([1]; oral, 15 mg flurazepam HCl, individual dog): 45.0 min and 30.0 min
- Hypnotic efficacy by oral administration (Wistar rats): the rats proved resistant

Structure (SMILES): Cc1ncc2n1-c1ccc(Cl)cc1C(c1ccccc1F)=NC2 [midazolam]
- half-life ([2]; nasal spray, 5.61-7.89 mg free base, individual dog, read-out: T1/2 NASAL): 36.1 min
- Tmax ([2]; nasal spray, 5.61-7.89 mg free base, individual dog, read-out: TMAX NASAL (converted)): 15 min
- Cmax ([2]; nasal spray, 5.61-7.89 mg free base, mean of four dogs, read-out: CMAX NASAL (MEAN)): 101 ng/mL
- half-life ([2]; nasal spray, 5.61-7.89 mg free base, mean of four dogs, read-out: T1/2 NASAL (MEAN)): 33.3 min
- Tmax ([2]; nasal spray, 5.61-7.89 mg free base, mean of four dogs, read-out: TMAX NASAL (MEAN) (converted)): 15 min
- Cmax ([2]; po, 5 mg, oral, 5 mg free base equivalent, mean of four dogs, head marked *, read-out: CMAX PO (MEAN)): 24.5 ng/mL
- half-life ([2]; po, 5 mg, oral, 5 mg free base equivalent, mean of four dogs, read-out: T1/2 PO (MEAN)): 33.2 min
- Tmax ([2]; po, 5 mg, oral, 5 mg free base equivalent, mean of four dogs, read-out: TMAX PO (MEAN) (converted)): 30 min
- Mean half-life in both routes of administration ([2]; dogs, nasal vs oral): about the same
- Tmax after nasal administration earlier than after oral administration ([2]; dogs, nasal vs oral): 2 fold
- Plasma levels after nasal administration compared with oral ([2]; dogs, nasal vs oral, dose-corrected, FIG. 2): consistently higher
- Mean increase in AUC after nasal administration [2, 4]: 2.5 fold
- Cmax after oral administration lower than that of nasal route ([2]; dogs, oral vs nasal): 4 times
- AUC NASAL ([2]; nasal spray, 5.61-7.89 mg free base, dose-normalized, individual dog): 842.9 ngmin/ml-mg and 520.8 ngmin/ml-mg and 338.5 ngmin/ml-mg and 650.8 ngmin/ml-mg
- AUC NASAL (MEAN) ([2]; nasal spray, 5.61-7.89 mg free base, dose-normalized, mean of four dogs): 588.3 ngmin/ml-mg
- CMAX NASAL [2, 6]: 159.0 ng/mL and 111.2 ng/mL and 47.1 ng/mL and 87.9 ng/mL
- T1/2 NASAL [2, 6]: 26.8 min and 36.5 min and 33.8 min
- AUC PO ([2]; oral, 5 mg free base equivalent, dose-normalized, individual dog): 235.6 ngmin/ml-mg and 242.0 ngmin/ml-mg and 157.8 ngmin/ml-mg and 333.2 ngmin/ml-mg
- AUC PO (MEAN) ([2]; oral, 5 mg free base equivalent, dose-normalized, mean of four dogs): 242.1 ngmin/ml-mg
- T1/2 PO [2, 7]: 43.5 min and 50.6 min and 19.4 min and 19.3 min
- TMAX PO [2, 7]: 15.0 min and 45.0 min and 30.0 min

Structure (SMILES): Cc1nnc2n1-c1ccc(Cl)cc1C(c1ccccc1Cl)=NC2 [triazolam]
- Cmax ([3]; CMAX NASAL (MEAN), nasal spray, 0.9343-1.532 mg, mean of four dogs, ng/ml): 27.6 ng/mL
- Cmax ([3]; CMAX NASAL, nasal spray, 0.9343-1.532 mg, individual dog, ng/ml): 27.2 ng/mL
- half-life ([3]; T1/2 NASAL (MEAN), nasal spray, 0.9343-1.532 mg, mean of four dogs): 57.3 min
- half-life ([3]; T1/2 NASAL, nasal spray, 0.9343-1.532 mg, individual dog): 62.7 min
- Tmax ([3]; TMAX NASAL (MEAN), nasal spray, 0.9343-1.532 mg, mean of four dogs, (min)): 18.8 min
- Tmax ([3]; TMAX NASAL, nasal spray, 0.9343-1.532 mg, individual dog, (min)): 15 min
- Tmax ([3]; Time of peak mean plasma concentration, nasal, dogs, mean): ~18.8 min
- Cmax ([3]; po, 1 mg, CMAX PO (MEAN), two 0.5 mg tablets, mean of four dogs, ng/ml): 7 ng/mL
- Cmax ([3]; po, 1 mg, CMAX PO, two 0.5 mg tablets, individual dog, ng/ml): 7.6 ng/mL
- half-life ([3]; po, 1 mg, T1/2 PO (MEAN), two 0.5 mg tablets, mean of four dogs): 67.5 min
- Tmax ([3]; po, 1 mg, TMAX PO (MEAN), two 0.5 mg tablets, mean of four dogs, (min)): 48.8 min
- Tmax ([3]; po, 1 mg, TMAX PO, two 0.5 mg tablets, individual dog, (min)): 45 min
- Tmax ([3]; po, 1 mg, Time of peak mean plasma concentration, dogs, mean): ~48.8 min
- Nasal absorption ([3]; dogs, nasal): significant nasal absorption
- Mean AUC after nasal administration larger than that of oral route ([3]; dogs, nasal vs oral): 2.4 fold
- Mean half-life in both routes of administration ([3]; dogs, nasal vs oral): about the same
- Plasma levels after nasal administration compared with oral ([3]; dogs, nasal vs oral, dose-corrected, FIG. 1): consistently higher
- Variability of oral plasma concentration-time curve compared with nasal ([3]; dogs, oral vs nasal, FIG. 1, attributed to gastric emptying of the tablets): more variability
- TMAX NASAL ([3]; nasal spray, 0.9343-1.532 mg, individual dog, (min)): 30.0
- CMAX NASAL ([3]; nasal spray, 0.9343-1.532 mg, individual dog, ng/ml): 31.20 and 25.20 and 26.60
- TMAX PO ([3]; oral, two 0.5 mg tablets, individual dog, (min)): 60.0 and 30.0
- CMAX PO ([3]; oral, two 0.5 mg tablets, individual dog, ng/ml): 6.10 and 5.50 and 8.70
